# Measurements published in ChEMBL document CHEMBL1136557, “2-Phenylspiroindenes: a novel class of selective estrogen receptor modulators (SERMs)” (Bioorg Med Chem Lett, 2003).
# How the values were obtained:
# Estrogen receptor beta [1] = molecular target: Estrogen receptor beta (Rattus norvegicus, UniProt Q62986); test: Binding affinity foor Rat Estrogen receptor-beta
# Estrogen receptor [2] = molecular target: T1, Estrogen receptor (Homo sapiens, UniProt P03372)
# T1 sequence (P03372 whole entry): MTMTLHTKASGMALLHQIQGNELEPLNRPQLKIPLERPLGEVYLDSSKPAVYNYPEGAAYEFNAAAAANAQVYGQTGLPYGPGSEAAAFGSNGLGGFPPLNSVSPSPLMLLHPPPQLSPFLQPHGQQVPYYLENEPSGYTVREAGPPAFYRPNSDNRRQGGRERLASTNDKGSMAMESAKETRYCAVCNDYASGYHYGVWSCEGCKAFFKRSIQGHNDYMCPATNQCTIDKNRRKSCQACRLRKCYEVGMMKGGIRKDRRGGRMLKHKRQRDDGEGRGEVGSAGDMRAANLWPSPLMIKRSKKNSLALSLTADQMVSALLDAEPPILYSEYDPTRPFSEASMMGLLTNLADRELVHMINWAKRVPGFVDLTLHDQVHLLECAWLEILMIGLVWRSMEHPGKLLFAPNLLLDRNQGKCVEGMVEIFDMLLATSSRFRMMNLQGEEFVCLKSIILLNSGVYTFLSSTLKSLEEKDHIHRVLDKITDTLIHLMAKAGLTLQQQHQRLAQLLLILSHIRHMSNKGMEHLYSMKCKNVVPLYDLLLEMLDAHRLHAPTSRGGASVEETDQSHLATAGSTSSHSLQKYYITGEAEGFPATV
# Description: Binding affinity for Human Estrogen receptor-alpha
# Estrogen receptor beta [3] = molecular target: Estrogen receptor beta (Homo sapiens, UniProt Q92731)
# Estrogen receptor beta (Homo sapiens, UniProt Q92731), sequence (Q92731 whole entry): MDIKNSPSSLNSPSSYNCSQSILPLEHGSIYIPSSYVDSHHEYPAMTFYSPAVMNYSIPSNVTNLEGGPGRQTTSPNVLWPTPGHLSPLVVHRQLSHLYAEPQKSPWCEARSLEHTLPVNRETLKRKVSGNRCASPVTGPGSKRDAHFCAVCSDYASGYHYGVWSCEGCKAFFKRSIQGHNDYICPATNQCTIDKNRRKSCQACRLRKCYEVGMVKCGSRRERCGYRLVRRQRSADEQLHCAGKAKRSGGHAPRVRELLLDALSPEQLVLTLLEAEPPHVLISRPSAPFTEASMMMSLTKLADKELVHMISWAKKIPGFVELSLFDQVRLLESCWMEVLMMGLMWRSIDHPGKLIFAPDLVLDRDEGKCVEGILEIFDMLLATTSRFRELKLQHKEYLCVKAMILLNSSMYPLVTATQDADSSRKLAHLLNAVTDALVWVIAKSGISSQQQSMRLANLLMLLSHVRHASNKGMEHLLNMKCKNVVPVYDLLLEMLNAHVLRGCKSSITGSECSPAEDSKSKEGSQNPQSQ
# Description: Binding affinity for Human Estrogen receptor-beta
# Estrogen receptor [4] = molecular target: T2, Estrogen receptor (Rattus norvegicus, UniProt P06211); test: Binding affinity for Rat Estrogen receptor-alpha
# T2 sequence (P06211 whole entry): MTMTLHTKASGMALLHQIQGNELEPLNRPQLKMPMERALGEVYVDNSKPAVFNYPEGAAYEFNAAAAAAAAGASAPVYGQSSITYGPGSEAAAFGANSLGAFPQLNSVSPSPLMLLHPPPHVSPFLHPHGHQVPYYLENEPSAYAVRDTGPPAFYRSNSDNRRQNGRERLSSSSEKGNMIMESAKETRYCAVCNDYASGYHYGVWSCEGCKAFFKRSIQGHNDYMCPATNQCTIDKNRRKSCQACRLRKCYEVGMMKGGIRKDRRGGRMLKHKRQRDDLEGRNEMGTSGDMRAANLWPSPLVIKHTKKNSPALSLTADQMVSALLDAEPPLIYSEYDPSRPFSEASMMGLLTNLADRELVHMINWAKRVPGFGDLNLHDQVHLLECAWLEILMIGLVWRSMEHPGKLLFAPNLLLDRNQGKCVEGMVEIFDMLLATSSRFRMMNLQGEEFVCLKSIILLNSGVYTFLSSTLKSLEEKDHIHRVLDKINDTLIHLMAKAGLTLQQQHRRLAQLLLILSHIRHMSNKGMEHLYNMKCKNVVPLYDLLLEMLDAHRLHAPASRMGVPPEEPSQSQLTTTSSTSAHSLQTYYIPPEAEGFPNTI
# Estrogen receptor beta (Rattus norvegicus, UniProt Q62986), sequence (Q62986 whole entry): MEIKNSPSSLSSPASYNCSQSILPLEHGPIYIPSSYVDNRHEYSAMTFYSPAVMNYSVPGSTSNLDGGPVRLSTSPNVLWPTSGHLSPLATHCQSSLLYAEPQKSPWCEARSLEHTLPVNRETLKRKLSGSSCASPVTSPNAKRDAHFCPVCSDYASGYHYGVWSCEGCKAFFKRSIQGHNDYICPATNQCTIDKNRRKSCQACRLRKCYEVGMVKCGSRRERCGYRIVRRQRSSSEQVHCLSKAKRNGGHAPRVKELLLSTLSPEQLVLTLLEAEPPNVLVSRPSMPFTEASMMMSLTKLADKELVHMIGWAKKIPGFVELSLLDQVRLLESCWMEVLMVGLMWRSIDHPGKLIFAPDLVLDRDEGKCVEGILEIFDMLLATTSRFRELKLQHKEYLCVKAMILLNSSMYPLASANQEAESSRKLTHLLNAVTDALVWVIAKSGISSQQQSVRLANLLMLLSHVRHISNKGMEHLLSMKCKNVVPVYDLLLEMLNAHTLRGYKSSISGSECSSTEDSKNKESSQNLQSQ
Compound,IC50 (Estrogen receptor beta [1]) [nM],IC50 (Estrogen receptor [2]) [nM],IC50 (Estrogen receptor beta [3]) [nM],IC50 (Estrogen receptor [4]) [nM]
Oc1cccc(C2=Cc3ccc(O)cc3C23Cc2ccccc2C3)c1,15,31,12,16
CC1=C(c2ccc(O)cc2)C2(Cc3ccccc3C2)c2ccc(O)cc21,1.2,19,5.9,2.2
Oc1cccc(C2=Cc3cc(O)ccc3C23Cc2ccccc2C3)c1,29,28,23,34
Oc1ccc(C2=Cc3cc(O)ccc3C23Cc2ccc(OCCN4CCCCC4)cc2C3)cc1 (centres undefined),2.7,1,1.9,1.7

# Next, values leading:
IC50 (Estrogen receptor beta [1]) [nM],IC50 (Estrogen receptor [2]) [nM],IC50 (Estrogen receptor beta [3]) [nM],IC50 (Estrogen receptor [4]) [nM],Compound
> 10000,> 10000,> 10000,> 10000,C1=C(c2ccccc2)C2(Cc3ccccc3C2)c2ccccc21
1070,58,429,114,Oc1ccc2c(c1)CC1(C2)C(c2ccccc2)=Cc2ccccc21 (centres undefined)
1.1,4.3,2.1,–,Oc1ccc(C2=Cc3cc(O)ccc3C23Cc2ccccc2C3)cc1
–,24,21,–,Oc1ccc2c(c1)C=C(c1ccccc1)C21Cc2ccccc2C1
